Results as given in patent US5843696A, “Bioassay for toxic substances activated by metabolic enzyme system” (priority 1995, dated 1998).

How the values were obtained:
[1] = tested on: ATP-driven reduction of NAD+ to NADH by submitochondrial particles; assay: RET (reverse electron transfer) test linked to cytochrome P-450 liver microsome activation
Source text: The effect of this is to drive an endergonic reduction of NAD^+ to NADH as long as there is sufficient presence of ATP. For the process to be effective, therefore, there must be a sufficient quantity of NAD^+ in the sample preparation to serve as a substrate for conversion by competent enzymes. It may also be required that other enzymes such as glutamate, or alcohol or pyruvate dehydrogenases be added from exogenous sources in the event these materials are lost by rupture of the intact mitochondria during particle preparation.
For a reverse electron transport assay in which NAD^+ is to be reduced to NADH, one obvious requirement of the assay medium is NAD^+ to be a substrate. To supply a source of electrons, succinate is a preferred substrate which can be oxidized by the complex II enzymes. In order to couple the donor electrons from succinate conversion to NAD^+ reduction, it is necessary to block transport of the electron flow through complex III enzymes. This can be easily accomplished by adding antimycin, a known inhibitor of the complex III enzymes. With this combination, if the mitochondrial membranes and enzymes are otherwise functional, electrons would flow from coenzyme Q back through complex I enzymes to NAD^+. Thus NAD^+ would be reduced to NADH, as long as ATP was present to energize the conversion. Thus, the initiation of the reaction can be controlled by the timing of ATP addition.

NADH oxidation by SMP = assay type: biochemical, beef; conditions: at the tested concentrations; no cytochrome P-450 enzymes
[2] = tested on: NADH oxidase activity of submitochondrial particles (enzyme complexes I, III, and IV); assay: ETr (electron transfer) test linked to cytochrome P-450 liver microsome activation; conditions: all tested concentrations; bovine serum albumin instead of microsomes

`c1ccc2cc3ccccc3cc2c1` [anthracene] was tested, and the “inhibition in RET test, secondary controls lacking liver microsomes” value ([1]; 1 ppm, no liver microsomes) was “no inhibition”.

For `ClC(Cl)(Cl)Cl` [carbon tetrachloride], the “inhibition in conventional ETr protocol” value (NADH oxidation by SMP) was “no inhibition” and the “inhibition of NADH oxidase activity, secondary control lacking liver microsomes” value [2] was 4%.

With `Brc1ccccc1` [bromobenzine] the “inhibition relative to controls lacking the test compound” value ([1]; 69 ppm, microsomes from phenobarbital-induced rats) was 68% and the “inhibition in controls containing the test compound but lacking microsomes” value ([1]; 69 ppm, no microsomes) was 22%.
